In this assay the target is T1, PD-1/PD-L1 protein/protein interaction (Homo sapiens, UniProt Q9NZQ7).
T1 construct: Recombinant human PD-L1 protein (19-238) with a His-tag at the C-terminus; purchased AcroBiosystems PD1-H5229 (PD-L1); PD1-H5257 (PD-1)
In words: PD-1/PD-L1 Homogeneous Time-Resolved Fluorescence (HTRF) binding assay. The following applies: recombinant human PD-1 (25-167) Fc tag and PD-L1 (19-238) His-tag, 25° C., PBS pH 7.4. Here is the method:
Example A. PD-1/PD-L1 Homogeneous Time-Resolved Fluorescence (HTRF) Binding Assay The assays were conducted in a standard black 384-well polystyrene plate with a final volume of 20 μL. Inhibitors were first serially diluted in DMSO and then added to the plate wells before the addition of other reaction components. The final concentration of DMSO in the assay was 1%. The assays were carried out at 25° C. in the PBS buffer (pH 7.4) with 0.05% Tween-20 and 0.1% BSA. Recombinant human PD-L1 protein (19-238) with a His-tag at the C-terminus was purchased from AcroBiosystems (PD1-H5229). Recombinant human PD-1 protein (25-167) with Fc tag at the C-terminus was also purchased from AcroBiosystems (PD1-H5257). PD-L1 and PD-1 proteins were diluted in the assay buffer and 10 μL was added to the plate well. Plates were centrifuged and proteins were preincubated with inhibitors for 40 minutes. The incubation was followed by the addition of 10 μL of HTRF detection buffer supplemented with Europium cryptate-labeled anti-human IgG (PerkinElmer-AD0212) specific for Fc and anti-His antibody conjugated to SureLight®-Allophycocyanin (APC, PerkinElmer-AD0059H). After centrifugation, the plate was incubated at 25° C. for 60 min. before reading on a PHERAstar FS plate reader (665 nm/620 nm ratio). […]

Where only a bound is given, the exact number is not on record here.

T1 sequence (Q9NZQ7 19-238): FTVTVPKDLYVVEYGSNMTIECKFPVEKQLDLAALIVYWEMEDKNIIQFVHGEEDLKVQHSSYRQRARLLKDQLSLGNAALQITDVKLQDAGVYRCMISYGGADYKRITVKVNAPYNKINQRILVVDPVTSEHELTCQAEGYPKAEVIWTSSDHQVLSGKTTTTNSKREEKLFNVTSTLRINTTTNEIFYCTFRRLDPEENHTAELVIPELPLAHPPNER

As for `Cc1c(Nc2nccc3cc(CN4CC[C@@H](O)C4)cnc23)cccc1-c1cccc(-c2nc3cc(CN4CC[C@@H](C(=O)O)C4)cc(C#N)c3o2)c1C` [Compound 1, (R)-1-((7-cyano-2-(3′-((3-(((R)-3-hydroxypyrrolidin-1-yl)methyl)-1,7-naphthyridin-8-yl)amino)-2,2′-dimethyl-[1,1′-biphenyl]-3-yl)benzo[d]oxazol-5-yl)methyl)pyrrolidine-3-carboxylic acid], the IC50 was at most 10 nM.

(Values after US12084443B2, “Process of preparing a PD-1/PD-L1 inhibitor” (Incyte Corporation, priority 2020, dated 2024).)
